Test results: ChEMBL document CHEMBL1153969, “N-Hydroxy-(4-oxime)-cinnamide: a versatile scaffold for the synthesis of novel histone deacetylase [correction of deacetilase] (HDAC) inhibitors” (Bioorg Med Chem Lett, 2009)
pIC50: −log10 of the molar value.

How the values were obtained:
NB-4 = experiment: Cytotoxicity against human NB4 cells after 48 hrs by SRB assay; assay type: functional, cell-based; settings: NB-4, 48 h
NCI-H460 = experiment: Cytotoxicity against human NCI-H460 cells after 48 hrs by SRB assay; assay type: functional, cell-based; settings: NCI-H460, 48 h
HCT-116 = experiment: Cytotoxicity against human HCT116 cells after 48 hrs by SRB assay; assay type: functional, cell-based; settings: HCT-116, 48 h
Histone deacetylase 2 = Histone deacetylase 2 (Homo sapiens, UniProt Q92769); experiment: Inhibition of human HDAC2
Histone deacetylase 3 = Histone deacetylase 3 (Homo sapiens, UniProt O15379); experiment: Inhibition of human HDAC3
Histone deacetylase 5 = Histone deacetylase 5 (Homo sapiens, UniProt Q9UQL6); experiment: Inhibition of human HDAC5
[1] = target: T1, Protein deacetylase HDAC6 (Homo sapiens, UniProt Q9UBN7); experiment: Inhibition of human HDAC6
T1 sequence (Q9UBN7 whole entry): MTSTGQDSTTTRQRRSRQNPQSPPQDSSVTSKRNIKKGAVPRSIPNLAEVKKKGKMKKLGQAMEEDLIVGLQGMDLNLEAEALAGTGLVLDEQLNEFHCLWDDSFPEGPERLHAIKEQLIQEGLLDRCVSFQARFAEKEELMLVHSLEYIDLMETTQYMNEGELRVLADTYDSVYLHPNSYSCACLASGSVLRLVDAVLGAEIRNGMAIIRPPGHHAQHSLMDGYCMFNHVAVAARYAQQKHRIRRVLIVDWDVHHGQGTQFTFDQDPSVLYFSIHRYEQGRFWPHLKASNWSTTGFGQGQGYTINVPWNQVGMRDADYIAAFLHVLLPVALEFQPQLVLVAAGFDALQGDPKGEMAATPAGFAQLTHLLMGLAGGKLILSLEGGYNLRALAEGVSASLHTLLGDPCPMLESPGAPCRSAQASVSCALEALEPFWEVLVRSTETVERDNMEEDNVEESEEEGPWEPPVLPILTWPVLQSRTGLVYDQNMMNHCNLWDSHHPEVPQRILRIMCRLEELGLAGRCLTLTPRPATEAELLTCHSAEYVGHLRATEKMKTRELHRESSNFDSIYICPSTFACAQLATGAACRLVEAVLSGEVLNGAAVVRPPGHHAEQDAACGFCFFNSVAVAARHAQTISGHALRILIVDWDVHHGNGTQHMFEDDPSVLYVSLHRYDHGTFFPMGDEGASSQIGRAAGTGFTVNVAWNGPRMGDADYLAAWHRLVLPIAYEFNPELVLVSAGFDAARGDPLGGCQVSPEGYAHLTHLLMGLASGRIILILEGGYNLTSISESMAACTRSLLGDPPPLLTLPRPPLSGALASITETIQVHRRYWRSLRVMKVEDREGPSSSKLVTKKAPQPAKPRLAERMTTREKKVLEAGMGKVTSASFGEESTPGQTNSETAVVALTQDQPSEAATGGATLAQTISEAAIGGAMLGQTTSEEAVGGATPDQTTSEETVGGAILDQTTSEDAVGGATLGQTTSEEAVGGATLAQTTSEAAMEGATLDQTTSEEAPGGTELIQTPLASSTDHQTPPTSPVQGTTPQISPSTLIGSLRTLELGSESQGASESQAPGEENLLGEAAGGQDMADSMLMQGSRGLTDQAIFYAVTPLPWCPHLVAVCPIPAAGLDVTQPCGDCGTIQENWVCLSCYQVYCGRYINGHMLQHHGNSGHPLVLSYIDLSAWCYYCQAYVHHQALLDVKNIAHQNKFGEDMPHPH

Histone deacetylase 8 = target: T2, Histone deacetylase 8 (Homo sapiens, UniProt Q9BY41); experiment: Inhibition of human HDAC8
T2 sequence (Q9BY41 whole entry): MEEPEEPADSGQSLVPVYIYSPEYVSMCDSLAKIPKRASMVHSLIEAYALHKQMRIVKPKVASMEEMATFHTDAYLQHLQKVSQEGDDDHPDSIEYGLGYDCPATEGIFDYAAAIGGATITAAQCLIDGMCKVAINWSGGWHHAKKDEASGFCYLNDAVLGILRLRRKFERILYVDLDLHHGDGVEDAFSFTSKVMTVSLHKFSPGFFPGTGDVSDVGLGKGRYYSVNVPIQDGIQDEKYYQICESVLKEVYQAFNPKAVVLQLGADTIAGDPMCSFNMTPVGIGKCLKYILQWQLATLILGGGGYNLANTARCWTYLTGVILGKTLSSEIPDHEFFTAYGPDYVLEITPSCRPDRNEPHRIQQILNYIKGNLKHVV

Histone deacetylase 9 = Histone deacetylase 9 (Homo sapiens, UniProt Q9UKV0); experiment: Inhibition of human HDAC9
[2] = target: T3, Polyamine deacetylase HDAC10 (Homo sapiens, UniProt Q969S8); experiment: Inhibition of human HDAC10
T3 sequence (Q969S8 whole entry): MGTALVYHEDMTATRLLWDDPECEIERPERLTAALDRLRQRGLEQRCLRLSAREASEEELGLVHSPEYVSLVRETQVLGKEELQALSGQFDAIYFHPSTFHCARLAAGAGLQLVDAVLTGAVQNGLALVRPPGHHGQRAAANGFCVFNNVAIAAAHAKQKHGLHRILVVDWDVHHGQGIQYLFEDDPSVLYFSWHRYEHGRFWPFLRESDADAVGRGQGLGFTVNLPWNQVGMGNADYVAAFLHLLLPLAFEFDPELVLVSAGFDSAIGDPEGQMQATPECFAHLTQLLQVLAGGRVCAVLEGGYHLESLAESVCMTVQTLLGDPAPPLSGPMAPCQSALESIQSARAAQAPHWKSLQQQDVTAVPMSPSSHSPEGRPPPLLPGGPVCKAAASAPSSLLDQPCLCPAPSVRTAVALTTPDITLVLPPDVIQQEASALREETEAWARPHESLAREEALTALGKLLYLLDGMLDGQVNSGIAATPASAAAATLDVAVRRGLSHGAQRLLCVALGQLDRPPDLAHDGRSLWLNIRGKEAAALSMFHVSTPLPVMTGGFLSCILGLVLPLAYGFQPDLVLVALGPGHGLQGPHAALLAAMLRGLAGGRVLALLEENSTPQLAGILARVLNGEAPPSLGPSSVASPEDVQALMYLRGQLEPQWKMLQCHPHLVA

Histone deacetylase 11 = target: T4, Histone deacetylase 11 (Homo sapiens, UniProt Q96DB2); experiment: Inhibition of human HDAC11
T4 sequence (Q96DB2 whole entry): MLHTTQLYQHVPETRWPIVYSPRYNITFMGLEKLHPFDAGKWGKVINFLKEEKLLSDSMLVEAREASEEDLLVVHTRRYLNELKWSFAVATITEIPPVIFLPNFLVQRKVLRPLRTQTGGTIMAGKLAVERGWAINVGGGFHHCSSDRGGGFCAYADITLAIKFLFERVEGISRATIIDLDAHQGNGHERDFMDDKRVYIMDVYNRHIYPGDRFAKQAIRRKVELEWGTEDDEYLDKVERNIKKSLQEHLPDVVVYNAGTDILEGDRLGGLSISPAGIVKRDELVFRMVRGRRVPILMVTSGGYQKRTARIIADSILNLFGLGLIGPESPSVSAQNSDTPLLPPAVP

Histone deacetylase 1 = Histone deacetylase 1 (Homo sapiens, UniProt Q13547)
Histone deacetylase 4 = Histone deacetylase 4 (Homo sapiens, UniProt P56524)
Description: Inhibition of human HDAC4

Histone deacetylase 7 = target: T5, Histone deacetylase 7 (Homo sapiens, UniProt Q8WUI4); experiment: Inhibition of human HDAC7
T5 sequence (Q8WUI4 whole entry): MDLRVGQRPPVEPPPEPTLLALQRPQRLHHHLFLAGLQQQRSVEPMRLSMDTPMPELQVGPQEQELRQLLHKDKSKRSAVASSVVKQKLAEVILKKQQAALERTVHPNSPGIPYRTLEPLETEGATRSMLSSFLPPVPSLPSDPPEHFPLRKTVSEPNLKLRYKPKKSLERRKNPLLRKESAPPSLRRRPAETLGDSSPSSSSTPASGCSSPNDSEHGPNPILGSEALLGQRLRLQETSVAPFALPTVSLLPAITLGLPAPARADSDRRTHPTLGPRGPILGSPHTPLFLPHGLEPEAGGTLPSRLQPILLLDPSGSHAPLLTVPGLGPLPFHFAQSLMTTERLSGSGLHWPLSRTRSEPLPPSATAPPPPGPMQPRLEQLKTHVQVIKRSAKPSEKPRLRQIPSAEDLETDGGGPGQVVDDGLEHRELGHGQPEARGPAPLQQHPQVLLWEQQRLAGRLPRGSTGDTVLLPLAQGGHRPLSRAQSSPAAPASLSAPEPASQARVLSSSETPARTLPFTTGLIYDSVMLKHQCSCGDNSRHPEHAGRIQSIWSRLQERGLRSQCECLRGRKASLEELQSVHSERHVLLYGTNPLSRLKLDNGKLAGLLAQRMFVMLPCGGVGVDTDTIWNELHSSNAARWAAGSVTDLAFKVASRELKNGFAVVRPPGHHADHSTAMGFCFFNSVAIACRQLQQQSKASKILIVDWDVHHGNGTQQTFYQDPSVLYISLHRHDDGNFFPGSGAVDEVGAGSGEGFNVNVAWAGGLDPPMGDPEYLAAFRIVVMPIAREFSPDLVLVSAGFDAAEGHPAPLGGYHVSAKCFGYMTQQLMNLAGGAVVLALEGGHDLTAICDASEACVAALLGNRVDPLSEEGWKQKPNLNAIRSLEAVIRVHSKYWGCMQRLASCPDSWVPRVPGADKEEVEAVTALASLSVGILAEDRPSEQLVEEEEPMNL

Chain of Histone deacetylase 3 (O15379 whole entry): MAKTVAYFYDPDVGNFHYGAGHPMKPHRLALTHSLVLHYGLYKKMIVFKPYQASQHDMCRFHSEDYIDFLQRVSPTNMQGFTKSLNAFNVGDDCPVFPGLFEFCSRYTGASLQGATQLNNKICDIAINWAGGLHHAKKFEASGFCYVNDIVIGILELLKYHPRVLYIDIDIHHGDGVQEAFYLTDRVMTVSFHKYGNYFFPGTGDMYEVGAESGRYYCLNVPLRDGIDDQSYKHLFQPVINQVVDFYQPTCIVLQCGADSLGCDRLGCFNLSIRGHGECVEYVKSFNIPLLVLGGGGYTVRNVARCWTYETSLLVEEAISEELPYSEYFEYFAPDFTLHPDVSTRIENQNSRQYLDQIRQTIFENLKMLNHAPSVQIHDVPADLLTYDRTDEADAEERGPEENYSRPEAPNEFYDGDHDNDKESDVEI
Chain of Histone deacetylase 5 (Q9UQL6 whole entry): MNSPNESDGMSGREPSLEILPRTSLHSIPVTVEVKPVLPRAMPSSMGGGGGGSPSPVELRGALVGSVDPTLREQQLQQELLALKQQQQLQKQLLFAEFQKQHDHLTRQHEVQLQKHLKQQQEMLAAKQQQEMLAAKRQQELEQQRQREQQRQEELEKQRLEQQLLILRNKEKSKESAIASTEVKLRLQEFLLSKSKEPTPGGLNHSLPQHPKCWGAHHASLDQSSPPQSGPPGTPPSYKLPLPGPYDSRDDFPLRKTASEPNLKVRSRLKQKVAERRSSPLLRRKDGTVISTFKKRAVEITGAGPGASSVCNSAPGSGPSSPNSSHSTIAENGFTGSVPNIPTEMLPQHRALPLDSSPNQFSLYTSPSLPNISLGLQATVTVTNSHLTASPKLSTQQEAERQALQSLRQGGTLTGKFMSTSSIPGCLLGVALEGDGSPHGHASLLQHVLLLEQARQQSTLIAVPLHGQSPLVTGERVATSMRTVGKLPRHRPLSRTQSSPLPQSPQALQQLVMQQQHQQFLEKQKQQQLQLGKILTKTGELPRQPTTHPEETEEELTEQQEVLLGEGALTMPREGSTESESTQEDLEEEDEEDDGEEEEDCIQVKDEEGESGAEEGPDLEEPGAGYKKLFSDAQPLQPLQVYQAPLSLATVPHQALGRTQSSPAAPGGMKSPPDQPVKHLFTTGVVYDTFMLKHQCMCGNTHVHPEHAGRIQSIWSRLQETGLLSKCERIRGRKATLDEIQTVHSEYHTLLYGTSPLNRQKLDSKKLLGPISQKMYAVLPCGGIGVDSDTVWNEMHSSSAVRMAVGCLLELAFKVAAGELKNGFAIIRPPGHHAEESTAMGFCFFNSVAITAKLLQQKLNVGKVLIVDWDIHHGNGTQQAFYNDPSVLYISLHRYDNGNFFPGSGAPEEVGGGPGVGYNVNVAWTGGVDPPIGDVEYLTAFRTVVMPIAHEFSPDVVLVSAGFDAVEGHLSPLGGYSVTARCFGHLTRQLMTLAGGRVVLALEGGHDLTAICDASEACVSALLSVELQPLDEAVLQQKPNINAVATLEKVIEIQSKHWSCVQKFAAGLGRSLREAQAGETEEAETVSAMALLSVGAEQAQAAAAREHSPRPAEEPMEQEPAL
Chain of Histone deacetylase 9 (Q9UKV0 whole entry): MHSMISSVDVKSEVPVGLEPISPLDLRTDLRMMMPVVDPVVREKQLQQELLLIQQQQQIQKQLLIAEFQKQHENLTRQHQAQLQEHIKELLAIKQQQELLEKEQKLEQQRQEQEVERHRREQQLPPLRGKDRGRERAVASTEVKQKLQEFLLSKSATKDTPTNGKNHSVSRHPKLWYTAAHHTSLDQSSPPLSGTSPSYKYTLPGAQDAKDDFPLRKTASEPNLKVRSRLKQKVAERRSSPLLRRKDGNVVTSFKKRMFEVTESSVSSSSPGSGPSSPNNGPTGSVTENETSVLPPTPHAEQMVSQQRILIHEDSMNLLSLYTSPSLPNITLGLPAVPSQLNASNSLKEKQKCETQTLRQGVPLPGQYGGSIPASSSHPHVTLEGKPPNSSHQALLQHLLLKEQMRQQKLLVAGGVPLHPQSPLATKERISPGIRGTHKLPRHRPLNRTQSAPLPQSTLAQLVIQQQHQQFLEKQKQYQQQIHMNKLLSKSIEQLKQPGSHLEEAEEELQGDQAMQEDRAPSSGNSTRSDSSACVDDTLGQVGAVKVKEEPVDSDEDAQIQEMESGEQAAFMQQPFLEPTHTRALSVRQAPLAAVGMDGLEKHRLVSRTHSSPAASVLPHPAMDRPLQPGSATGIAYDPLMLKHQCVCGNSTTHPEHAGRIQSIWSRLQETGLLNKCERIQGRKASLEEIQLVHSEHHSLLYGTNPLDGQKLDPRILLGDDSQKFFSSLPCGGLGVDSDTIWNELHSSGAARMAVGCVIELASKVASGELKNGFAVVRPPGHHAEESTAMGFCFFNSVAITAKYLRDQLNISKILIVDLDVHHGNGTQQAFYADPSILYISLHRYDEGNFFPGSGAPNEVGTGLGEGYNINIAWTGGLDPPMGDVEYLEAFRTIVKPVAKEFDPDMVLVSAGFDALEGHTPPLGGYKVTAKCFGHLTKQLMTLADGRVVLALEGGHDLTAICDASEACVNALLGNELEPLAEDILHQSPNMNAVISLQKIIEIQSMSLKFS
Chain of Histone deacetylase 1 (Q13547 whole entry): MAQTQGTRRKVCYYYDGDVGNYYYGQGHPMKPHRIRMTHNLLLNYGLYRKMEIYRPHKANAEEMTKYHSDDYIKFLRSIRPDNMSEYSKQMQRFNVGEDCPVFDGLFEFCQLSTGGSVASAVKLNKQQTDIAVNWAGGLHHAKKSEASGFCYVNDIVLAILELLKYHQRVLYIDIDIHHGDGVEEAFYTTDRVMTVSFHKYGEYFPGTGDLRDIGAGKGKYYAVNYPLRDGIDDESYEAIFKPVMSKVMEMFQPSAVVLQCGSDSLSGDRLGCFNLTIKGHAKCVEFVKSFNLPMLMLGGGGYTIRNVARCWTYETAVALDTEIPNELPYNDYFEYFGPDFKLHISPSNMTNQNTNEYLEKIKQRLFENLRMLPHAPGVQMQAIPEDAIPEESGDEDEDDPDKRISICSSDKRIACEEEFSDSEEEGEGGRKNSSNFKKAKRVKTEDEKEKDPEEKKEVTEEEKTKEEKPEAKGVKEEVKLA
Chain of Histone deacetylase 4 (P56524 whole entry): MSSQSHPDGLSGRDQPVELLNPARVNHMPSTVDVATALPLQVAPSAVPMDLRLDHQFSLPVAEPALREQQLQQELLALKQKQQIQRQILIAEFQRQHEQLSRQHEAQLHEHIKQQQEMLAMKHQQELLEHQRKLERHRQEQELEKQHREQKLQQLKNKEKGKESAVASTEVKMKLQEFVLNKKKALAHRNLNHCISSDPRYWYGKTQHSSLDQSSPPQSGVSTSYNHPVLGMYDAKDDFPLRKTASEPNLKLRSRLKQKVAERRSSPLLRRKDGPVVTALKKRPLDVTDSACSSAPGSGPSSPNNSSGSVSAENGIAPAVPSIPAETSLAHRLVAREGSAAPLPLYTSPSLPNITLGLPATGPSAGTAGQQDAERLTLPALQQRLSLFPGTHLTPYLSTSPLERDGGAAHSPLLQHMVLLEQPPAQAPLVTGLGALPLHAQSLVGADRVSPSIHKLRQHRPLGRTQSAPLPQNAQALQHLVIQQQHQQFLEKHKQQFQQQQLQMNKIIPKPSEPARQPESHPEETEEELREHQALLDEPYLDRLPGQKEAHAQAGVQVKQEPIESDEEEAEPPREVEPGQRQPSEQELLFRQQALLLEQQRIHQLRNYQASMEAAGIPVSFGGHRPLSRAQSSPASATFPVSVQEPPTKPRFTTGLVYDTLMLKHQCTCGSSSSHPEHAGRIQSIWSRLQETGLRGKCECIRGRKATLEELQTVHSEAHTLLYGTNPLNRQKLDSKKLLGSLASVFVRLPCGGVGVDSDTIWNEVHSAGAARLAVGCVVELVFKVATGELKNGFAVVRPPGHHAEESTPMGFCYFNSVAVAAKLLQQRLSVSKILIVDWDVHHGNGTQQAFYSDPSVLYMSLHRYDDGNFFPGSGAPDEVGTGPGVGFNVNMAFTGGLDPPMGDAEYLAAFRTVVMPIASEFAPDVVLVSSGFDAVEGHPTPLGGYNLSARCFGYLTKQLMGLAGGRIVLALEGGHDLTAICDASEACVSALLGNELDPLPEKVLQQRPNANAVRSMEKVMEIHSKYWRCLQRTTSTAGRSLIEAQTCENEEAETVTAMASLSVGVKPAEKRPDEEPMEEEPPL
Chain of Histone deacetylase 2 (Q92769 whole entry): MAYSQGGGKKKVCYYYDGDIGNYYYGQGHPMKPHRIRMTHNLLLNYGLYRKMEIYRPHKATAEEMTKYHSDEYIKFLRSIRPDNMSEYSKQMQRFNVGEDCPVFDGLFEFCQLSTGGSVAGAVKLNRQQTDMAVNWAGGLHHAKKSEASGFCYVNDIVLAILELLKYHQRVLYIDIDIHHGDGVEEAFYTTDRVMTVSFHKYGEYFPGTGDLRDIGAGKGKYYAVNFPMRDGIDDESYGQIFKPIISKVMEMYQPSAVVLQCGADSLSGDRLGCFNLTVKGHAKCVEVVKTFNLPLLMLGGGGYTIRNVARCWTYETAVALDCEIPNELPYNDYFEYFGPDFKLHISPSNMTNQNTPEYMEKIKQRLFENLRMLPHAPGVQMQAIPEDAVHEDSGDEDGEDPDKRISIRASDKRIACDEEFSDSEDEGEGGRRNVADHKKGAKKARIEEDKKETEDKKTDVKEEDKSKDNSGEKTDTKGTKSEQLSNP

| Structure (SMILES) | pIC50 (NB-4) | pIC50 (NCI-H460) | pIC50 (HCT-116) | pIC50 (Histone deacetylase 2) | pIC50 (Histone deacetylase 3) | pIC50 (Histone deacetylase 5) | pIC50 [1] | pIC50 (Histone deacetylase 8) | pIC50 (Histone deacetylase 9) | pIC50 [2] | pIC50 (Histone deacetylase 11) | pIC50 (Histone deacetylase 1) | pIC50 (Histone deacetylase 4) | pIC50 (Histone deacetylase 7) |
| --- | --- | --- | --- | --- | --- | --- | --- | --- | --- | --- | --- | --- | --- | --- |
| O=C(/C=C/c1ccc(/C=N/OCc2ccccc2)cc1)NO | 6.21 | 5.80 | 5.55 | – | – | – | – | – | – | – | – | – | – | – |
| Nc1ccccc1NC(=O)/C=C/c1ccc(/C=N/OCc2ccc([N+](=O)[O-])cc2)cc1 | < 4.70 | < 4.70 | < 4.70 | – | – | – | – | – | – | – | – | – | – | – |
| O=C(/C=C/c1ccc(/C=N/Oc2ccccc2)cc1)NO | 5.57 | 5.29 | 5.43 | – | – | – | – | – | – | – | – | – | – | – |
| O=C(/C=C/c1ccc(C2=NOC(CN3CCOCC3)C2)cc1)NO (configuration not stated) | – | 5.00 | 5.52 | – | – | – | – | – | – | – | – | – | – | – |
| O=C(/C=C/c1ccc(/C=N/OCc2c(F)c(F)c(F)c(F)c2F)cc1)NO | 6.15 | 5.80 | 5.62 | 4.96 | 5.55 | 5.14 | 6.18 | 5.89 | 4.92 | 5.13 | 5.26 | 5.26 | 4.41 | – |
| COC(=O)c1ccc(CO/N=C/c2ccc(/C=C/C(=O)NO)cc2)cc1 | 6.09 | 5.77 | 5.77 | 4.80 | 6.18 | 5.44 | 7.03 | 6.22 | 5.19 | 5.27 | 4.97 | 5.74 | 4.89 | – |
| O=C(/C=C/c1cccc(/C=N/OCCN2CCOCC2)c1)NO | 5.72 | 5.18 | 5.40 | – | – | – | – | – | – | – | – | – | – | – |
| O=C(/C=C/c1ccc(/C=N/OCCN2CCOCC2)cc1)NO | 5.77 | 5.54 | 5.74 | 4.56 | 5.39 | 5.13 | 6.52 | 6.63 | 4.88 | 5.11 | 5.51 | 5.51 | 4.79 | – |
| Nc1ccccc1NC(=O)/C=C/c1ccc(/C=N/OCCN2CCOCC2)cc1 | 5.05 | < 4.70 | < 4.70 | – | – | – | – | – | – | – | – | – | – | – |
| O=C(C#Cc1ccc(/C=N/OCc2ccc([N+](=O)[O-])cc2)cc1)NO | < 4.70 | < 4.70 | < 4.70 | – | – | – | – | – | – | – | – | – | – | – |
| O=C(/C=C/c1ccc(-c2cc(CN3CCOCC3)on2)cc1)NO | – | 5.15 | 5.40 | – | 5.50 | 4.97 | – | 6.90 | 4.95 | 5.21 | 5.20 | 5.20 | – | 4.65 |
| O=C(/C=C/c1ccc(/C=N/O)cc1)NO | 5.54 | 5.20 | 5.46 | – | – | – | – | – | – | – | – | – | – | – |
| O=C(CCc1ccc(/C=N/OCc2ccc([N+](=O)[O-])cc2)cc1)NO | 6.02 | 5.11 | 5.51 | – | – | – | – | – | – | – | – | – | – | – |
| C=CCO/N=C/c1ccc(/C=C/C(=O)NO)cc1 | 5.85 | 5.49 | 5.46 | – | – | – | – | – | – | – | – | – | – | – |
| O=C(/C=C/c1ccc(/C=N/OCc2ccc([N+](=O)[O-])cc2)cc1)NO | 6.12 | 5.59 | 5.92 | 5.57 | 6.80 | 5.94 | 6.91 | 7.15 | 5.61 | 5.80 | 6.10 | 6.10 | 5.69 | 5.64 |
